The values that follow come from patent US10611731B2, “5-methyl-6-phenyl-4,5-dihydro-2H-pyridazin-3-one derivative” (OTSUKA PHARMACEUTICAL CO., LTD., priority 2016, dated 2020).

The experiment has as its system human childhood brain tumor cell lines (PFSK-1). Kind of experiment: Growth inhibitory activity against PFSK-1 cells (WST-8, Cell Counting Kit-8). The experiment is classed as cell-based. The settings on record: 3 days incubation with test compound, WST-8 OD 450/630 nm, read-out: IC50 (concentration inhibiting 50% of the cell growth). The method, then: The growth inhibitory activity against human childhood brain tumor cell lines (PFSK-1) was measured with WST-8 reagent [2-(2-methoxy-4-nitrophenyl)-3-(4-nitrophenyl)-5-(2,4-disulfophenyl)-2H-tetrazolium monosodium salt, Cell Counting Kit-8™], according to the method described in Tominaga, H. et al., Anal. Commun., 1999, 36, 47-50. Briefly, PFSK-1 was seeded in 96-well microplate at 100 μL/well with Roswell Park Memorial Institute (RPMI) 1640 medium containing 10% fetal bovine serum (FBS), and the cells were incubated in the presence of 5% carbon dioxide (CO2) at 37° C. for 24 hours. 50 μL of each test compound diluted with the medium was added to each well, and then the cells were incubated further for 3 days. After the incubation, 15 μL of Cell Counting Kit-8™ was added to each well, and the cells were incubated for one and half hours. Then, optical density (OD) values at measurement wavelength 450 nm and reference wavelength 630 nm were measured and the difference thereof was calculated. From the calculated difference, the OD value difference (at measurement wavelength 450 nm and reference wavelength 630 nm) of the control well which includes no cell was subtracted to afford cell-growth activity in each well.
The cell growth inhibitory activity of each test compound was calculated by comparing the cell-growth activity with each test compound to the cell-growth activity without any test compound (control), and each IC50 (nM) which is the concentration inhibiting 50% of the cell growth was calculated.
Background: Tetrazolium dyes change colour on reduction, which living cells bring about.

SMILES strings stand for the structures. Where two headings read alike, the source gives them in different places.

In the case of `CC1CC(=O)NN=C1c1ccc(OC[C@H]2C[C@H]2CO)c(Cl)c1F` (relative stereo) [Example 154, 6-(3-Chloro-2-fluoro-4-{[(1S*,2R*)-2-(hydroxymethyl)cyclopropyl]methoxy}phenyl)-5-methyl-4,5-dihydro-2H-pyridazin-3-one], for the setting “Homo sapiens, 72 h”, the IC50 is 2.9 nM. Still for that read-out and setting: then `Cc1cc(C2=NNC(=O)CC2C)cc(Cl)c1OC[C@H]1C[C@H]1CO` (relative stereo) [Example 155, 6-(3-Chloro-4-{[(1 S*,2R*)-2-(hydroxymethyl)cyclopropyl]methoxy}-5-methylphenyl)-5-methyl-4,5-dihydro-2H-pyridazin-3-one], with 2.2 nM. With `CC1CC(=O)NN=C1c1ccc(OC[C@H]2C[C@@H]2CO)c(Cl)c1F` (relative stereo) [Example 156, 6-(3-Chloro-2-fluoro-4-{[(1S*,2S*)-2-(hydroxymethyl)cyclopropyl]methoxy}phenyl)-5-methyl-4,5-dihydro-2H-pyridazin-3-one], the IC50 turned out to be 2.9 nM. Turning to `CC1CC(=O)NN=C1c1cc(Cl)c(OCC(C)(C)O)c(Br)c1` (stereo not shown) [Example 1, 6-[3-bromo-5-chloro-4-(2-hydroxy-2-methylpropoxy)phenyl]-5-methyl-4,5-dihydro-2H-pyridazin-3-one], the IC50 (Homo sapiens, 72 h) was found to be 1.1 nM.

In the case of `CC1CC(=O)NN=C1c1cc(Cl)c(OCC(C)(C)O)c(Cl)c1` (stereo not shown) [Example 2, 6-[3,5-dichloro-4-(2-hydroxy-2-methylpropoxy)phenyl]-5-methyl-4,5-dihydro-2H-pyridazin-3-one], the IC50 (Homo sapiens, 72 h) amounted to 1 nM. Consider `CC1CC(=O)NN=C1c1cc(F)c(OCC(C)(C)CO)c(F)c1` (stereo not shown) [Example 6, 6-[3,5-Difluoro-4-(3-hydroxy-2,2-dimethylpropoxy)phenyl]-5-methyl-4,5-dihydro-2H-pyridazin-3-one], for which the IC50 (Homo sapiens, 72 h) came to 3.8 nM. The same measure, in the same setting: then `CC1CC(=O)NN=C1c1cc(F)c(OCC(C)(C)CO)c(Cl)c1` (stereo not shown) [Example 7, 6-[3-chloro-5-fluoro-4-(3-hydroxy-2,2-dimethylpropoxy)phenyl]-5-methyl-4,5-dihydro-2H-pyridazin-3-one], with 1 nM.

With `Cc1c(OCC(C)(C)CO)ccc(C2=NNC(=O)CC2C)c1F` (stereo not shown) [Example 8, 6-[2-Fluoro-4-(3-hydroxy-2,2-dimethylpropoxy)-3-methylphenyl]-5-methyl-4,5-dihydro-2H-pyridazin-3-one], the IC50 (Homo sapiens, 72 h) turned out to be 7.9 nM. Still for that read-out and setting: then `CC1CC(=O)NN=C1c1ccc(OCC(C)(C)CO)c(F)c1F` (stereo not shown) [Example 9, 6-[2,3-Difluoro-4-(3-hydroxy-2,2-dimethylpropoxy)phenyl]-5-methyl-4,5-dihydro-2H-pyridazin-3-one], with 4.2 nM; and `CC1CC(=O)NN=C1c1ccc(OCCCO)c(F)c1F` (stereo not shown) [Example 10, 6-[2,3-Difluoro-4-(3-hydroxypropoxy)phenyl]-5-methyl-4,5-dihydro-2H-pyridazin-3-one], with 3.7 nM. The same measure, in the same setting: the same measure for `CC1CC(=O)NN=C1c1cc(F)c(OCCCO)c(Br)c1` (stereo not shown) [Example 11, 6-[3-Bromo-5-fluoro-4-(3-hydroxypropoxy)phenyl]-5-methyl-4,5-dihydro-2H-pyridazin-3-one]: 3 nM; for `CC1CC(=O)NN=C1c1ccc(OCCCO)c(Br)c1F` (stereo not shown) [Example 12, 6-[3-bromo-2-fluoro-4-(3-hydroxypropoxy)phenyl]-5-methyl-4,5-dihydro-2H-pyridazin-3-one]: 1.9 nM. As for `Cc1cc(C2=NNC(=O)CC2C)cc(C)c1OCCCO` (stereo not shown) [Example 14, 6-[4-(3-Hydroxypropoxy)-3,5-dimethylphenyl]-5-methyl-4,5-dihydro-2H-pyridazin-3-one], under “Homo sapiens, 72 h”, the IC50 was determined as 8 nM. Still for that read-out and setting: then `CC1CC(=O)NN=C1c1cc(F)c(OCCCO)c(Cl)c1` (stereo not shown) [Example 15, 6-[3-Chloro-5-fluoro-4-(3-hydroxypropoxy)phenyl]-5-methyl-4,5-dihydro-2H-pyridazin-3-one], with 4 nM; and `CC1CC(=O)NN=C1c1cc(Cl)c(OCCCO)c(Cl)c1` (stereo not shown) [Example 16, 6-[3,5-Dichloro-4-(3-hydroxypropoxy)phenyl]-5-methyl-4,5-dihydro-2H-pyridazin-3-one], with 3.6 nM; and `CC1CC(=O)NN=C1c1ccc(OCCCO)c(Cl)c1F` (stereo not shown) [Example 19, 6-[3-chloro-2-fluoro-4-(3-hydroxypropoxy)phenyl]-5-methyl-4,5-dihydro-2H-pyridazin-3-one], with 1.3 nM. The same measure, in the same setting: then `Cc1cc(C2=NNC(=O)CC2C)cc(F)c1OCCCO` (stereo not shown) [Example 20, 6-[3-Fluoro-4-(3-hydroxypropoxy)-5-methylphenyl]-5-methyl-4,5-dihydro-2H-pyridazin-3-one], with 4.2 nM; and `Cc1c(OCCCO)ccc(C2=NNC(=O)CC2C)c1F` (stereo not shown) [Example 21, 6-[2-Fluoro-4-(3-hydroxypropoxy)-3-methylphenyl]-5-methyl-4,5-dihydro-2H-pyridazin-3-one], with 4 nM. `Cc1cc(C2=NNC(=O)CC2C)c(F)c(Cl)c1OCCCO` (stereo not shown) [Example 22, 6-[3-chloro-2-fluoro-4-(3-hydroxypropoxy)-5-methylphenyl]-5-methyl-4,5-dihydro-2H-pyridazin-3-one]: the IC50 (Homo sapiens, 72 h) was found to be 1.9 nM. Still for that read-out and setting: then `CCc1c(OCCCO)ccc(C2=NNC(=O)CC2C)c1F` (stereo not shown) [Example 23, 6-[3-Ethyl-2-fluoro-4-(3-hydroxypropoxy)phenyl]-5-methyl-4,5-dihydro-2H-pyridazin-3-one], with 8 nM; and `CC1CC(=O)NN=C1c1ccc(OCC(C)(C)O)c(Br)c1F` (stereo not shown) [Example 24, 6-[3-bromo-2-fluoro-4-(2-hydroxy-2-methylpropoxy)phenyl]-5-methyl-4,5-dihydro-2H-pyridazin-3-one], with 1.7 nM; and `CC1CC(=O)NN=C1c1cc(F)c(OCC(C)(C)O)c(Cl)c1` (stereo not shown) [Example 25, 6-[3-Chloro-5-fluoro-4-(2-hydroxy-2-methylpropoxy)phenyl]-5-methyl-4,5-dihydro-2H-pyridazin-3-one], with 2.6 nM. On the same count and under the same terms, then `CC1CC(=O)NN=C1c1cc(F)c(OCC(C)(C)O)c(Br)c1` (stereo not shown) [Example 26, 6-[3-bromo-5-fluoro-4-(2-hydroxy-2-methylpropoxy)phenyl]-5-methyl-4,5-dihydro-2H-pyridazin-3-one], with 2 nM.

Regarding `Cc1c(OCC(C)(C)O)ccc(C2=NNC(=O)CC2C)c1O` (stereo not shown) [Example 28, 6-[2-Hydroxy-4-(2-hydroxy-2-methylpropoxy)-3-methylphenyl]-5-methyl-4,5-dihydro-2H-pyridazin-3-one], the IC50 (Homo sapiens, 72 h) was determined as 6.3 nM. In the case of `Cc1cc(C2=NNC(=O)CC2C)cc(Cl)c1OCC(C)(C)O` (stereo not shown) [Example 31, 6-[3-chloro-4-(2-hydroxy-2-methylpropoxy)-5-methylphenyl]-5-methyl-4,5-dihydro-2H-pyridazin-3-one], the IC50 (Homo sapiens, 72 h) amounted to 1.1 nM. The same measure, in the same setting: the same measure for `Cc1cc(C2=NNC(=O)CC2C)cc(C)c1OCC(C)(C)O` (stereo not shown) [Example 32, 6-[4-(2-Hydroxy-2-methylpropoxy)-3,5-dimethylphenyl]-5-methyl-4,5-dihydro-2H-pyridazin-3-one]: 4 nM. The same measure, in the same setting: the same measure for `Cc1cc(C2=NNC(=O)CC2C)cc(F)c1OCC(C)(C)O` (stereo not shown) [Example 33, 6-[3-Fluoro-4-(2-hydroxy-2-methylpropoxy)-5-methylphenyl]-5-methyl-4,5-dihydro-2H-pyridazin-3-one]: 5.1 nM; for `Cc1c(OCC(C)(C)O)ccc(C2=NNC(=O)CC2C)c1F` (stereo not shown) [Example 34, 6-[2-Fluoro-4-(2-hydroxy-2-methylpropoxy)-3-methylphenyl]-5-methyl-4,5-dihydro-2H-pyridazin-3-one]: 5.2 nM.

As to `Cc1c(F)c(C2=NNC(=O)CC2C)cc(Cl)c1OCC(C)(C)O` (stereo not shown) [Example 35, 6-[5-Chloro-2-fluoro-4-(2-hydroxy-2-methylpropoxy)-3-methylphenyl]-5-methyl-4,5-dihydro-2H-pyridazin-3-one], the IC50 (Homo sapiens, 72 h) was 6.3 nM. On the same count and under the same terms, the same measure for `Cc1cc(C2=NNC(=O)CC2C)c(F)c(Cl)c1OCC(C)(C)O` (stereo not shown) [Example 36, 6-[3-chloro-2-fluoro-4-(2-hydroxy-2-methylpropoxy)-5-methylphenyl]-5-methyl-4,5-dihydro-2H-pyridazin-3-one]: 1 nM; for `CC1CC(=O)NN=C1c1cc(F)c(OCC(O)(C(F)(F)F)C(F)(F)F)c(Cl)c1` (stereo not shown) [Example 37, 6-{3-Chloro-5-fluoro-4-[3,3,3-trifluoro-2-hydroxy-2-(trifluoromethyl)propoxy]phenyl}-5-methyl-4,5-dihydro-2H-pyridazin-3-one]: 8.8 nM; for `CC1CC(=O)NN=C1c1cc(F)c(OCC(O)(C(F)(F)F)C(F)(F)F)c(Br)c1` (stereo not shown) [Example 38, 6-{3-Bromo-5-fluoro-4-[3,3,3-trifluoro-2-hydroxy-2-(trifluoromethyl)propoxy]phenyl}-5-methyl-4,5-dihydro-2H-pyridazin-3-one]: 5.2 nM.

As to `Cc1cc(C2=NNC(=O)CC2C)cc(Cl)c1OC[C@H](C)O` (stereo partly drawn) [Example 39, 6-{3-Chloro-4-[(2S)-2-hydroxypropoxy]-5-methylphenyl}-5-methyl-4,5-dihydro-2H-pyridazin-3-one], the IC50 (Homo sapiens, 72 h) came to 2.8 nM. Same read-out and setting: then `Cc1cc(C2=NNC(=O)CC2C)cc(Cl)c1OC[C@@H](C)O` (stereo partly drawn) [Example 40, 6-{3-chloro-4-[(2R)-2-hydroxypropoxy]-5-methylphenyl}-5-methyl-4,5-dihydro-2H-pyridazin-3-one], with 1.6 nM.
